Test results taken from patent US20240158446A1, “CYCLIC COMPOUND HAVING SELECTIVE INHIBITORY ACTION ON KRAS OVER HRAS AND NRAS” (CHUGAI SEIYAKU KABUSHIKI KAISHA, priority 2021, published 2024).

Columns and labels:
[1] = biological target: GDP-bound HRAS wild-type protein (Homo sapiens, UniProt P01112); experiment: Binding to HRAS by surface plasmon resonance (SPR), Single Cycle Kinetics; details: for HRAS/KRAS (ratio of KD value for HRAS to KD value for KRAS) / HRAS/KRAS (ratio of KD value with respect to HRAS to KD value with respect to KRAS): SPR, GDP-bound HRAS wild-type protein vs GDP-bound KRAS wild-type protein; for HRAS/KRAS (ratio of KD value with respect to GDP-bound HRAS wild-type protein to KD value with respect to KRAS): SPR KD ratio HRAS/KRAS, class symbols
[2] = biological target: GDP-bound NRAS wild-type protein (Homo sapiens, UniProt P01111); experiment: Binding to NRAS by surface plasmon resonance (SPR), Single Cycle Kinetics; details: for NRAS/KRAS (ratio of KD value for NRAS to KD value for KRAS) / NRAS/KRAS (ratio of KD value with respect to NRAS to KD value with respect to KRAS): SPR, GDP-bound NRAS wild-type protein vs GDP-bound KRAS wild-type protein; for NRAS/KRAS (ratio of KD value with respect to GDP-bound NRAS wild-type protein to KD value with respect to KRAS): SPR KD ratio NRAS/KRAS, class symbols
Sequence of GDP-bound NRAS wild-type protein (P01111 whole entry): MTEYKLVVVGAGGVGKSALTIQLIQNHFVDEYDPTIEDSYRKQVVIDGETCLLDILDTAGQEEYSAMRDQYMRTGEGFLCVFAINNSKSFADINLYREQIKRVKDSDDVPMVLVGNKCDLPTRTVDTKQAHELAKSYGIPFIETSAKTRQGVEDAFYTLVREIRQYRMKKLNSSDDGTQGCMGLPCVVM

Sequence of GDP-bound HRAS wild-type protein (P01112 whole entry): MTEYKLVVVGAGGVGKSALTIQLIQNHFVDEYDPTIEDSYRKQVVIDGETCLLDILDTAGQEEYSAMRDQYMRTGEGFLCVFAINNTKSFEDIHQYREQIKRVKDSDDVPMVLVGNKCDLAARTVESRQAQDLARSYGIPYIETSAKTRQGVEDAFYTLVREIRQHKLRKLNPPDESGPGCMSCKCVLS

## C#CC[C@H]1C(=O)N[C@@H]([C@@H](C)CC)C(=O)N(C)CC(=O)N(C)[C@H]2C/C=C\CCN(C2=O)[C@@H](Cc2ccc(C(F)(F)F)cc2)C(=O)N(C)CC(=O)N[C@@H](CCc2ccc(C(F)(F)F)c(OC)c2)C(=O)N2C[C@@H](C)C[C@H]2C(=O)NC2(CCC2)C(=O)N(C)[C@@H](C2CCCC2)C(=O)N(C)[C@H](C(=O)N(C)CCC)CC(=O)N1C [PP2063]
[1]
  HRAS/KRAS (ratio of KD value for HRAS to KD value for KRAS): A (a compound having 10 or more and less than 20 is denoted as A)
[2]
  NRAS/KRAS (ratio of KD value for NRAS to KD value for KRAS): AA (a compound having 20 or more is denoted as AA)

## CC[C@H](C)[C@@H]1NC(=O)[C@H](CC)N(C)C(=O)C[C@@H](C(=O)N2CCOCC2)N(C)C(=O)[C@H](C2CCCC2)N(C)C(=O)C2(CCCC2)NC(=O)[C@@H]2CCCN2C(=O)[C@H](CCc2cc(F)c(C(F)(F)F)c(F)c2)NC(=O)CN(C)C(=O)[C@H](Cc2ccc(C(F)(F)F)cc2)N2CCCC[C@@H](C2=O)N(C)C(=O)CN(C)C1=O [PP0550]
[1]
  HRAS/KRAS (ratio of KD value with respect to HRAS to KD value with respect to KRAS): B (a compound having 3 or more and less than 10 is denoted as B)
[2]
  NRAS/KRAS (ratio of KD value with respect to NRAS to KD value with respect to KRAS): B (a compound having 3 or more and less than 10 is denoted as B)

## CCC[C@H]1C(=O)N[C@@H]([C@H](C)CC)C(=O)N(C)CC(=O)N(C)[C@H]2C/C=C\CCN(C2=O)[C@@H](Cc2ccc(C)cc2)C(=O)N(C)CC(=O)N[C@@H](CCc2ccc(C(F)(F)F)c(Cl)c2)C(=O)N2C[C@H](OCC)C[C@H]2C(=O)NC2(CC(C)(C)C2)C(=O)N(C)[C@@H](C2CCCC2)C(=O)N(C)[C@H](C(=O)N(C)C)CC(=O)N1C [PP2221]
[1]
  HRAS/KRAS (ratio of KD value for HRAS to KD value for KRAS): A (a compound having 10 or more and less than 20 is denoted as A)
[2]
  NRAS/KRAS (ratio of KD value for NRAS to KD value for KRAS): A (a compound having 10 or more and less than 20 is denoted as A)

## CCC[C@H]1C(=O)N[C@@H]([C@@H](C)CC)C(=O)N(C2CC2)CC(=O)N(C)[C@H]2C/C=C\CCN(C2=O)[C@@H](Cc2ccc(C)cc2)C(=O)N(C)CC(=O)N[C@@H](CCc2ccc(C3CC3)c(C)c2)C(=O)N2C[C@H](OCC)C[C@H]2C(=O)NC2(CC(C)(C)C2)C(=O)N(C)[C@@H](C2CCCC2)C(=O)N(C)[C@H](C(=O)N(C)C)CC(=O)N1C [PP2886]
[1]
  HRAS/KRAS (ratio of KD value with respect to GDP-bound HRAS wild-type protein to KD value with respect to KRAS): A (a compound having 10 or more and less than 20 is denoted as A)
[2]
  NRAS/KRAS (ratio of KD value with respect to GDP-bound NRAS wild-type protein to KD value with respect to KRAS): A (a compound having 10 or more and less than 20 is denoted as A)

## CCOC[C@H]1C(=O)N[C@@H]([C@@H](C)CC)C(=O)N(C)CC(=O)N(C)[C@H]2C/C=C\CCN(C2=O)[C@@H](Cc2ccc(C3CC3)cc2)C(=O)N(C)CC(=O)N[C@@H](CCc2ccc(C(F)(F)F)c(OC)c2)C(=O)N2C[C@@H](C)C[C@H]2C(=O)NC2(CC(C)(C)C2)C(=O)N(C)[C@@H](C2CCCC2)C(=O)N(C)[C@H](C(=O)N(C)CC)CC(=O)N1C [PP2700]
[1]
  HRAS/KRAS (ratio of KD value with respect to GDP-bound HRAS wild-type protein to KD value with respect to KRAS): B (a compound having 3 or more and less than 10 is denoted as B)
[2]
  NRAS/KRAS (ratio of KD value with respect to GDP-bound NRAS wild-type protein to KD value with respect to KRAS): A (a compound having 10 or more and less than 20 is denoted as A)

## CCC[C@H]1C(=O)N[C@@H]([C@@H](C)CC)C(=O)N(C2CC2)CC(=O)N(C)[C@H]2C/C=C\CCN(C2=O)[C@@H](Cc2ccc(C)cc2)C(=O)N(C)CC(=O)N[C@@H](CCc2cc(C)c(C(F)F)c(F)c2)C(=O)N2C[C@H](OCC)C[C@H]2C(=O)NC2(CC(C)(C)C2)C(=O)N(C)[C@@H](C2CCCC2)C(=O)N(C)[C@H](C(=O)N(C)C)CC(=O)N1C [PP2874]
[1]
  HRAS/KRAS (ratio of KD value with respect to GDP-bound HRAS wild-type protein to KD value with respect to KRAS): A (a compound having 10 or more and less than 20 is denoted as A)
[2]
  NRAS/KRAS (ratio of KD value with respect to GDP-bound NRAS wild-type protein to KD value with respect to KRAS): A (a compound having 10 or more and less than 20 is denoted as A)

## CCO[C@@H]1C[C@H]2C(=O)NC3(CCC3)C(=O)N(C)[C@@H](C3CCCC3)C(=O)N(CC)[C@H](C(=O)N3CCOCC3)CC(=O)N(C)[C@@H](CC(C)C)C(=O)N[C@@H]([C@@H](C)CC)C(=O)N(C)CC(=O)N(C)[C@H]3CCCCCN(C3=O)[C@@H](Cc3ccc(C(F)(F)F)cc3)C(=O)N(C)CC(=O)N[C@@H](CCc3cc(F)c(C(F)(F)F)c(F)c3)C(=O)N2C1 [PP0638]
[1]
  HRAS/KRAS (ratio of KD value with respect to HRAS to KD value with respect to KRAS): B (a compound having 3 or more and less than 10 is denoted as B)
[2]
  NRAS/KRAS (ratio of KD value with respect to NRAS to KD value with respect to KRAS): B (a compound having 3 or more and less than 10 is denoted as B)

## CCC[C@H]1C(=O)N[C@@H]([C@@H](C)CC)C(=O)N(C2CC2)CC(=O)N(C)[C@H]2C/C=C\CCN(C2=O)[C@@H](CC2CCCCC2)C(=O)N(C)CC(=O)N[C@@H](CCc2ccc(C(F)(F)F)c(OC)c2)C(=O)N2C[C@H](OCC)C[C@H]2C(=O)N(C)C2(CCC2)C(=O)N(C)[C@@H](C2CCCC2)C(=O)N(C)[C@H](C(=O)N(C)C)CC(=O)N1C [PP2340]
[1]
  HRAS/KRAS (ratio of KD value for HRAS to KD value for KRAS): B (a compound having 3 or more and less than 10 is denoted as B)
[2]
  NRAS/KRAS (ratio of KD value for NRAS to KD value for KRAS): B (a compound having 3 or more and less than 10 is denoted as B)

## CC[C@H](C)[C@@H]1NC(=O)[C@H](CC2CC2)N(C)C(=O)C[C@@H](C(=O)N(C)CC)N(C)C(=O)[C@H](C2CCCC2)N(C)C(=O)C2(CC(C)(C)C2)NC(=O)[C@@H]2C[C@@H](F)CN2C(=O)[C@H](CCc2cc(F)c(C(F)(F)F)c(F)c2)NC(=O)CN(C)C(=O)[C@H](Cc2ccc(C)cc2)N2CC/C=C\C[C@@H](C2=O)N(C)C(=O)CN(C)C1=O [PP2802]
[1]
  HRAS/KRAS (ratio of KD value with respect to GDP-bound HRAS wild-type protein to KD value with respect to KRAS): A (a compound having 10 or more and less than 20 is denoted as A)
[2]
  NRAS/KRAS (ratio of KD value with respect to GDP-bound NRAS wild-type protein to KD value with respect to KRAS): AA (a compound having 20 or more is denoted as AA)

## CCC[C@H]1C(=O)N[C@@H]([C@@H](C)CC)C(=O)N(C)CC(=O)N(C)[C@H]2C/C=C\CCN(C2=O)[C@@H](Cc2ccc(C)cc2)C(=O)N(C)CC(=O)N[C@@H](CCc2ccc3c(C)c(C)n(C)c3c2)C(=O)N2C[C@H](OCC)C[C@H]2C(=O)NC2(CC(C)(C)C2)C(=O)N(C)[C@@H](C(CC)CC)C(=O)N(C)[C@H](C(=O)N(C)C)CC(=O)N1C [PP2906]
[1]
  HRAS/KRAS (ratio of KD value with respect to GDP-bound HRAS wild-type protein to KD value with respect to KRAS): A (a compound having 10 or more and less than 20 is denoted as A)
[2]
  NRAS/KRAS (ratio of KD value with respect to GDP-bound NRAS wild-type protein to KD value with respect to KRAS): A (a compound having 10 or more and less than 20 is denoted as A)

## CCO[C@@H]1C[C@H]2C(=O)NC3(CCC3)C(=O)N(C)[C@@H](C3CCCC3)C(=O)N(C)[C@H](C)CC(=O)N(C)[C@@H](CC3CCCC3)C(=O)N[C@@H]([C@@H](C)CC)C(=O)N(C)CC(=O)N(C)[C@H]3C/C=C\CCN(C3=O)[C@@H](Cc3ccc(F)cc3)C(=O)N(C)CC(=O)N[C@@H](CCc3cc(F)c(C(F)(F)F)c(F)c3)C(=O)N2C1 [PP1492]
[1]; KD ratio class
  HRAS/KRAS (ratio of KD value for HRAS to KD value for KRAS): B (a compound having 3 or more and less than 10 is denoted as B)
[2]; KD ratio class
  NRAS/KRAS (ratio of KD value for NRAS to KD value for KRAS): B (a compound having 3 or more and less than 10 is denoted as B)

## CC[C@H](C)[C@@H]1NC(=O)[C@H](CC(C)C)N(C)C(=O)C[C@@H](C(=O)N2CCOCC2)N(C)C(=O)[C@H](C2CCC2)N(C)C(=O)C2(CCCC2)NC(=O)[C@@H]2CCCN2C(=O)[C@H](CCc2cc(F)c(C(F)(F)F)c(F)c2)NC(=O)CN(C)C(=O)[C@H](Cc2ccc(C(F)(F)F)cc2)N2CCCCC[C@@H](C2=O)N(C)C(=O)CN(C)C1=O [PP0504]
[1]
  HRAS/KRAS (ratio of KD value with respect to HRAS to KD value with respect to KRAS): B (a compound having 3 or more and less than 10 is denoted as B)
[2]
  NRAS/KRAS (ratio of KD value with respect to NRAS to KD value with respect to KRAS): B (a compound having 3 or more and less than 10 is denoted as B)

## CCO[C@@H]1C[C@H]2C(=O)NC3(CCC3)C(=O)N(C)[C@@H](C3CCCC3)C(=O)N(C)[C@H](C(=O)N(CC)CC)CC(=O)N(C)[C@@H](CC(F)F)C(=O)N[C@@H]([C@@H](C)CC)C(=O)N(C)CC(=O)N(C)[C@H]3C/C=C\CCN(C3=O)[C@@H](Cc3ccc(C(F)(F)F)cc3)C(=O)N(C)CC(=O)N[C@@H](CCc3cc(F)c(C(F)(F)F)c(F)c3)C(=O)N2C1 [PP1309]
[1]; KD ratio class
  HRAS/KRAS (ratio of KD value for HRAS to KD value for KRAS): A (a compound having 10 or more and less than 20 is denoted as A)
[2]; KD ratio class
  NRAS/KRAS (ratio of KD value for NRAS to KD value for KRAS): A (a compound having 10 or more and less than 20 is denoted as A)

## CCCCO[C@@H]1C[C@H]2C(=O)NC3(CCC3)C(=O)N(C)[C@@H](C3CCCC3)C(=O)N(C)[C@H](C(=O)N3CCOCC3)CC(=O)N(C)[C@@H](CC(C)C)C(=O)N[C@@H]([C@@H](C)CC)C(=O)N(C)CC(=O)N(C)[C@H]3CCCCN(C3=O)[C@@H](Cc3ccc(C(F)(F)F)cc3)C(=O)N(C)CC(=O)N[C@@H](CCc3cc(F)c(C(F)(F)F)c(F)c3)C(=O)N2C1 [PP1013]
[1]
  HRAS/KRAS (ratio of KD value for HRAS to KD value for KRAS): C (A compound having a KD ratio of 0.1 or more and less than 3 is denoted as C)
[2]
  NRAS/KRAS (ratio of KD value for NRAS to KD value for KRAS): C (A compound having a KD ratio of 0.1 or more and less than 3 is denoted as C)

## CCC[C@H]1C(=O)N[C@@H]([C@@H](C)CC)C(=O)N(C)CC(=O)N(C)[C@H]2C/C=C\CCN(C2=O)[C@@H](Cc2ccc(C)cc2)C(=O)N(C)CC(=O)N[C@@H](CCc2cc(Cl)c3sccc3c2)C(=O)N2C[C@H](OCC)C[C@H]2C(=O)NC2(CC(C)(C)C2)C(=O)N(C)[C@@H](C2CCCC2)C(=O)N(C)[C@H](C(=O)N(C)C)CC(=O)N1C [PP2947]
[1]
  HRAS/KRAS (ratio of KD value with respect to GDP-bound HRAS wild-type protein to KD value with respect to KRAS): B (a compound having 3 or more and less than 10 is denoted as B)
[2]
  NRAS/KRAS (ratio of KD value with respect to GDP-bound NRAS wild-type protein to KD value with respect to KRAS): B (a compound having 3 or more and less than 10 is denoted as B)
